Data reported in patent US9616245B2, “Method of treating cells with drug and radiation according to proton density” (priority 2009, dated 2017).
Where two headings read alike, the source gives them in different places.

Tests used:
cancer cells = settings: cited from earlier work
protein kinase C (PKC) = settings: cited from earlier work
lipoxygenase = settings: cited from earlier work
[1] = target: inducible nitric oxide synthase (iNOS) (Homo sapiens, UniProt P35228); settings: cited from earlier work
Sequence of inducible nitric oxide synthase (iNOS) (P35228 whole entry, species assumed): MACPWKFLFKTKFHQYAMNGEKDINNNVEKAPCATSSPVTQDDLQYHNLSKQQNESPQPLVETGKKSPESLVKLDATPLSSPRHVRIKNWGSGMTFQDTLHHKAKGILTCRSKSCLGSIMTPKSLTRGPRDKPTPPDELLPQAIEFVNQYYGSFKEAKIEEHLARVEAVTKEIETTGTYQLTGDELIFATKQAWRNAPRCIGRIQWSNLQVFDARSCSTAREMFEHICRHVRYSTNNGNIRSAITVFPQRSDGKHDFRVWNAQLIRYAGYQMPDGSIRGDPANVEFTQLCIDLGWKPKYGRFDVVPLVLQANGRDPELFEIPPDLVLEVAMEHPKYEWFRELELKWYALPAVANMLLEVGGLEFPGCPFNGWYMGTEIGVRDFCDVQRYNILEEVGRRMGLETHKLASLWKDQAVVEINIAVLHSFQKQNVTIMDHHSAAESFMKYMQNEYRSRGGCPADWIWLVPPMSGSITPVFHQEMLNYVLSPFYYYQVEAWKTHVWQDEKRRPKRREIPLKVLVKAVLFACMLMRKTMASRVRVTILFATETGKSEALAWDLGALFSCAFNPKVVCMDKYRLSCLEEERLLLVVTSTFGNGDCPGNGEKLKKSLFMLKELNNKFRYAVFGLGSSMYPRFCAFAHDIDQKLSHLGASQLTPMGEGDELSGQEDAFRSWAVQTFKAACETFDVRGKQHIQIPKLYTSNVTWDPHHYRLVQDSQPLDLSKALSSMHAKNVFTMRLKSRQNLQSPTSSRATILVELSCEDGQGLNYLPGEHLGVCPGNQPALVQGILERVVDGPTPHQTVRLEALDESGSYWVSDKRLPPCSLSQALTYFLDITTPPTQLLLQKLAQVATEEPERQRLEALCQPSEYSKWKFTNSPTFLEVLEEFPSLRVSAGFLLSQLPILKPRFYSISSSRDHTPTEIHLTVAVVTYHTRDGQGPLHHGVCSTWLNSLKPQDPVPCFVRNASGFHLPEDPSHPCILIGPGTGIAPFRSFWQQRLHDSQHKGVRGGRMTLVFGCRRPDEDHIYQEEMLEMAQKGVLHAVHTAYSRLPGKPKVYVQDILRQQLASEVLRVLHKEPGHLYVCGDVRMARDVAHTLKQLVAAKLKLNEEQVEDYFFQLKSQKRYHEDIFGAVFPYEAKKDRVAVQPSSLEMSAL

[2] = test system: peripheral blood monocytes and alveolar macrophages; settings: cited from earlier work
IkB kinase = settings: cited from earlier work
cycloxygenase = settings: cited from earlier work
[3] = test system: head and neck tumor cell lines; settings: Clin. Cancer Res. 2005; 11(19); cited from earlier work

## COc1cc(/C=C/C(=O)CC(=O)/C=C/c2ccc(O)c(OC)c2)ccc1O [Curcumin]
Cancer cells
  apoptosis (programmed cell death): induce apoptosis
Protein kinase C (PKC)
  inhibition of phorbol ester induced PKC activity: inhibits
lipoxygenase
  inhibition of lipoxygenase: inhibits
[1]
  inhibition of iNOS: inhibits
[2]
  production of inflammatory cytokines: inhibit production
IkB kinase
  inhibition of IkB kinase: potent inhibitor
cycloxygenase
  inhibition of cycloxygenase: inhibits
[3]
  growth of tumor cell lines: suppresses growth

## O=P1(N(CCCl)CCCl)NCCCO1 (stereo not shown) [Cyclophosphamide]
Recurrent Meduloblastoma; first leg, without FORN, metronomic mode with three anti angiogenic drugs, after 2 weeks
  bone marrow / blood counts: severe bone marrow depression

## COc1cc([C@@H]2c3cc4c(cc3[C@@H](O[C@@H]3O[C@@H]5CO[C@@H](C)O[C@H]5[C@H](O)[C@H]3O)[C@H]3COC(=O)[C@H]23)OCO4)cc(OC)c1O [VP 16, Etoposide]
Recurrent Meduloblastoma; human, in vivo
  bone marrow / blood counts: severe bone marrow depression
